Data: US20210355104A1, “ADENOSINE RECEPTOR BINDING COMPOUNDS” (Nikang Therapeuticsm Inc., priority 2018, published 2021)
Values joined by “and” are separate entries in the source; they are usually repeats but may differ in a detail not shown here. Equal entries are not always repeated.

What follows are compounds tested against Adenosine A2A receptor (Homo sapiens, UniProt P29274) (assay: cAMP assay in 293A cells stably expressing the adenosine A2A receptor (CGS21680 stimulation, HTRF)). Conditions: 293A cells stably expressing A2A receptor; 0.1% BSA; 1 uM CGS21680 stimulation; replicate values separated by /; read-out: cAMP (nM) 0.1% BSA, 1 uM CGS.
Assay type: cell-based
Set-up: expressed in transfected cells; host or cells: 293A cells (Invitrogen, Cat# R705-07) infected with A2A-expressing lentivirus (custom packaged by Biosettia), puromycin selected
Method: A 293A cell line (Invitrogen, Cat# R705-07) stably expressing the adenosine A2A receptor was generated in house. Briefly, 293A cells were seeded in 6-well plate and infected with A2A expressing lentivirus (custom packaged by Biosettia) and selected with puromycin (1 ug/ml). Cells survived selection were confirmed for A2A expression by RT-qPCR (RT Reagent: High-Capacity cDNA Reverse Transcription Kit, Applied Biosystems/Thermo Fisher Cat# 4368814, qPCR reagent: SYBR™ Green Master Mix, Applied Biosystems/Thermo Fisher Cat# 4309155). The cells were maintained in DMEM/F12 medium containing 10% FBS, 100 units/ml Penicillin, 100 μg/ml Streptomycin, and 1 μg/ml puromycin at 37° C., 5% CO2. 293A-A2AR cells were harvested on the day of assay and resuspended at 0.6 million cells/ml in DMEM/F12 with 0.1% BSA and 30 U/ml denosine deaminase(Roche, Cat #: 10102121001). Serial dilutions of compounds were prepared in DMEM/F12 with 0.1% BSA to a DMSO concentration of 0.6%. After 4 μl of compound dilutions were added, 4 μl suspended cells were dispensed into low-volume white 384-well plates (Greiner Bio-One). […] The assay plate was then incubated at room temperature for 30 min. 3 μl of d2 conjugated cAMP and 3 μl cryptate conjugated anti-cAMP antibody were then added. D2 conjugated cAMP and cryptate conjugated anti-cAMP antibody (Cisbio, Cat #: 62AM6PEC) were both prepared in cell lysis buffer according to the manufacturer's instruction. After 1 h incubation at room temperature, plates were read in CIARIOstar plate reader (BMG Labtech) using the HTRF detection mode.

Chain of Adenosine A2A receptor (P29274 whole entry): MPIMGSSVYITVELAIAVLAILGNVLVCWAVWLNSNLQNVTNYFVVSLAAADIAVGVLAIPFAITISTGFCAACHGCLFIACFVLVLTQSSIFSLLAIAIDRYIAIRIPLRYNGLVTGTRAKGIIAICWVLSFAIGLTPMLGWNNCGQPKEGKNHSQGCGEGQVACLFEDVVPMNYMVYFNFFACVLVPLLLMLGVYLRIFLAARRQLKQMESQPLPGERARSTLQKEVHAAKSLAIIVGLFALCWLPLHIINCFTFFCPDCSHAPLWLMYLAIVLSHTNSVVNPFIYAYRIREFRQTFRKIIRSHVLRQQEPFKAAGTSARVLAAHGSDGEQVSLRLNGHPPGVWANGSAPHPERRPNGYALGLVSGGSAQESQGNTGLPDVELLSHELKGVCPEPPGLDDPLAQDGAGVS

With `Cc1cc(-c2c(OCc3cccc(CN)n3)nc(N)nc2-c2ccc(F)cc2)cc(C(F)F)n1` [Example 412, 4-((6-(aminomethyl)pyridin-2-yl)methoxy)-5-(2-(difluoromethyl)-6-methylpyridin-4-yl)-6-(4-fluorophenyl)pyrimidin-2-amine] the IC50 was 503 nM and 747 nM.
In the case of `Cc1cc(-c2c(OCc3nccc4c3cnn4C)nc(N)nc2-c2ccc(F)cc2)cc(C(F)F)n1` [Example 423, 5-(2-(difluoromethyl)-6-methylpyridin-4-yl)-4-(4-fluorophenyl)-6-((1-methyl-1H-pyrazolo[4,3-c]pyridin-4-yl)methoxy)pyrimidin-2-amine], the IC50 is reported as 435 nM and 732 nM.
`Cc1cc(-c2c(OCc3cccc(CN(CC(=O)N(C)C)CC(=O)N(C)C)n3)nc(N)nc2-c2ccc(F)cc2)cc(C(F)F)n1` [Example 436, 2,2′-(((6-(((2-amino-5-(2-(difluoromethyl)-6-methylpyridin-4-yl)-6-(4-fluorophenyl)pyrimidin-4-yl)oxy)methyl)pyridin-2-yl)methyl)azanediyl)bis(N, N-dimethylacetamide)] was tested, and the IC50 was 894 nM and 530 nM.

Work on `Cc1cc(-c2c(OCc3nc(C(C)(C)O)ccc3C(C)(C)O)nc(N)nc2-c2ccc(F)cc2)cc(C(F)F)n1` [Example 438, 2,2-(6-(((2-amino-5-(2-(difluoromethyl)-6-methylpyridin-4-yl)-6-(4-fluorophenyl)pyrimidin-4-yl)oxy)methyl)pyridine-2,5-diyl)bis(propan-2-ol)] yielded an IC50 of 3180 nM.

Same assay, conditions: 293A-A2AR cells, 0.1% BSA, 1 uM CGS; read-out: cAMP (nM) 0.1% BSA, 1 uM CGS

`CCn1c(COc2nc(N)nc(-c3ccc(F)cc3)c2-c2cc(C)nc(C(F)F)c2)nc2ccc(C(=O)O)cc21` [Example 332, 2-(((2-amino-5-(2-(difluoromethyl)-6-methylpyridin-4-yl)-6-(4-fluorophenyl)pyrimidin-4-yl)oxy)methyl)-1-ethyl-1H-benzo[d]imidazole-6-carboxylic acid] and `CCn1c(COc2nc(N)nc(-c3ccc(F)cc3)c2-c2cc(C)nc(C(F)F)c2)nc2cccc(C(=O)O)c21` [Example 344, 2-(((2-amino-5-(2-(difluoromethyl)-6-methylpyridin-4-yl)-6-(4-fluorophenyl)pyrimidin-4-yl)oxy)methyl)-1-ethyl-1H-benzo[d]imidazole-7-carboxylic acid] cannot be ordered by IC50: greater than 5000 nM for the first, greater than 25000 nM for the second.

Compared with `CCn1c(COc2nc(N)nc(-c3ccc(F)cc3)c2-c2cc(C)nc(C(F)F)c2)n[nH]c1=O` [Example 340, 5-(((2-amino-5-(2-(difluoromethyl)-6-methylpyridin-4-yl)-6-(4-fluorophenyl)pyrimidin-4-yl)oxy)methyl)-4-ethyl-2,4-dihydro-3H-1,2,4-triazol-3-one], `CCn1c(COc2nc(N)nc(-c3ccc(F)cc3)c2-c2cc(C)nc(C(F)F)c2)nc2ccc(C(C)(C)C(=O)O)nc21` [Example 365, 2-(2-(((2-amino-5-(2-(difluoromethyl)-6-methylpyridin-4-yl)-6-(4-fluorophenyl)pyrimidin-4-yl)oxy)methyl)-3-ethyl-3H-imidazo[4,5-b]pyridin-5-yl)-2-methylpropanoic acid] is higher in IC50: 4080 nM for the first, greater than 25000 nM for the second. The first is the more potent here.

First: Cc1cc(-c2c(OCc3ccncn3)nc(N)nc2-c2cccc(C#N)c2C)cc(C(F)F)n1 [Example 240, 3-(2-amino-5-(2-(difluoromethyl)-6-methylpyridin-4-yl)-6-(pyrimidin-4-ylmethoxy)pyrimidin-4-yl)-2-methylbenzonitrile]
Second: Cc1cc(-c2c(OCc3nccn3CC(C)(C)O)nc(N)nc2-c2cccc(C#N)c2C)cc(C(F)F)n1 [Example 236, 3-(2-amino-5-(2-(difluoromethyl)-6-methylpyridin-4-yl)-6-((1-(2-hydroxy-2-methylpropyl)-1H-imidazol-2-yl)methoxy)pyrimidin-4-yl)-2-methylbenzonitrile]
The IC50 of the first is lower: 17000 nM for the first, greater than 25000 nM for the second.

First: Cc1cc(-c2c(-c3ccc(F)cc3)nc(N)nc2-c2cn(Cc3cccc(C(C)(C)O)n3)nn2)cc(C(F)F)n1 [Example 298, 2-(6-((4-(2-amino-5-(2-(difluoromethyl)-6-methylpyridin-4-yl)-6-(4-fluorophenyl)pyrimidin-4-yl)-1H-1,2,3-triazol-1-yl)methyl)pyridin-2-yl)propan-2-ol]
Second: Cc1cc(-c2c(OCc3ccnc(C(C)(C)O)c3)nc(N)nc2-c2ccc(F)cc2)cc(C(F)F)n1 [Example 287, 2-(4-(((2-amino-5-(2-(difluoromethyl)-6-methylpyridin-4-yl)-6-(4-fluorophenyl)pyrimidin-4-yl)oxy)methyl)pyridin-2-yl)propan-2-ol]
The IC50 of the first is higher: greater than 10000 nM for the first, 835 nM for the second.

`CCc1c(COc2nc(N)nc(-c3ccc(F)cc3)c2-c2cc(C)nc(C(F)F)c2)nnn1C[C@@H](O)CO` [Example 289, (R)-3-(4-(((2-amino-5-(2-(difluoromethyl)-6-methylpyridin-4-yl)-6-(4-fluorophenyl)pyrimidin-4-yl)oxy)methyl)-5-ethyl-1H-1,2,3-triazol-1-yl)propane-1,2-diol] and `CCc1c(COc2nc(N)nc(-c3ccc(F)cc3)c2-c2cc(C)nc(C(F)F)c2)nnn1CC(O)COC` (centres unmarked) [Example 323, 1-(4-(((2-amino-5-(2-(difluoromethyl)-6-methylpyridin-4-yl)-6-(4-fluorophenyl)pyrimidin-4-yl)oxy)methyl)-5-ethyl-1H-1,2,3-triazol-1-yl)-3-methoxypropan-2-ol] are within 1.5-fold of each other in IC50: 2090 nM for the first, 1680 nM for the second.

Going from `Cc1cc(-c2c(OCc3cccc(N4CCC[C@@H]4C(=O)O)n3)nc(N)nc2-c2ccc(F)cc2)cc(C(F)F)n1` [Example 294, (6-(((2-amino-5-(2-(difluoromethyl)-6-methylpyridin-4-yl)-6-(4-fluorophenyl)pyrimidin-4-yl)oxy)methyl)pyridin-2-yl)-D-proline] to `Cc1cc(-c2c(OCc3cccc(C(C)(C)C(=O)O)c3F)nc(N)nc2-c2ccc(F)cc2)cc(C(F)F)n1` [Example 370, 2-(3-(((2-amino-5-(2-(difluoromethyl)-6-methylpyridin-4-yl)-6-(4-fluorophenyl)pyrimidin-4-yl)oxy)methyl)-2-fluorophenyl)-2-methylpropanoic acid], the IC50 falls from 19700 nM to 5430 nM (3.6-fold). The second is the more potent here.

Going from `Cc1cc(-c2c(OCCn3cc(C(=O)O)ccc3=O)nc(N)nc2-c2ccc(F)cc2)cc(C(F)F)n1` [Example 336, 1-(2-((2-amino-5-(2-(difluoromethyl)-6-methylpyridin-4-yl)-6-(4-fluorophenyl)pyrimidin-4-yl)oxy)ethyl)-6-oxo-1,6-dihydropyridine-3-carboxylic acid] to `Cc1cc(-c2c(OCc3nnn(CC(C)(C)O)n3)nc(N)nc2-c2ccc(F)cc2)cc(C(F)F)n1` [Example 242, 1-(5-(((2-amino-5-(2-(difluoromethyl)-6-methylpyridin-4-yl)-6-(4-fluorophenyl)pyrimidin-4-yl)oxy)methyl)-2H-tetrazol-2-yl)-2-methylpropan-2-ol], the IC50 falls from greater than 25000 nM to 2020 nM.

In the case of `Cc1cc(-c2c(OCc3ccnc(N(C)C)n3)nc(N)nc2-c2ccc(F)cc2)cc(C(F)F)n1` [Example 307, 4-(((2-amino-5-(2-(difluoromethyl)-6-methylpyridin-4-yl)-6-(4-fluorophenyl)pyrimidin-4-yl)oxy)methyl)-N,N-dimethylpyrimidin-2-amine], the IC50 is reported as 211 nM and 246 nM.
`Cc1cc(-c2c(OCc3ccc(F)c(C(C)(C)C(=O)O)n3)nc(N)nc2-c2ccc(F)cc2)cc(C(F)F)n1` [Example 375, 2-(6-(((2-amino-5-(2-(difluoromethyl)-6-methylpyridin-4-yl)-6-(4-fluorophenyl)pyrimidin-4-yl)oxy)methyl)-3-fluoropyridin-2-yl)-2-methylpropanoic acid] was tested, and the IC50 was 17600 nM and 23300 nM.
